Test results taken from US20230157952A1, “METHOD FOR IMPROVING THE STABILITY OF A PHARMACEUTICAL COMPOSITION COMPRISING A HIGH PENETRATION DRUG, AND THE PHARMACEUTICAL COMPOSITION OBTAINED THEREFROM” (Techfields Inc., priority 2020, published 2023).
Values belong to the compound of their own block, whether it stands above or below them.

Experiment: Effect of temperature (and pH) on the stability of the solution (purity)
Assay type: physicochemical
Details: 7% solution in water

Compound: CCN(CC)CCOC(=O)Cc1ccc(C(=O)c2ccc(C)cc2)n1C.Cl
- Purity(%) at day 0 (pH 1.0, day 0): 97.4 ± 0.4%
- Purity(%) at day 21 (5° C.) (pH 1.0, day 21, 5° C.): 90.3 ± 0.3%
- Purity(%) at day 21 (25° C.) (pH 1.0, day 21, 25° C.): 65.5 ± 0.3%
- Purity(%) at day 21 (40° C.) (pH 1.0, day 21, 40° C.): 9.4 ± 0.3%
- Purity (%) at day 21 (60° C.) (pH 1.0, day 21, 60° C.): 0%
- Purity(%) at day 0 (pH 2.0, day 0): 97.6 ± 0.3%
- Purity(%) at day 21 (5° C.) (pH 2.0, day 21, 5° C.): 93.5 ± 0.3%
- Purity(%) at day 21 (25° C.) (pH 2.0, day 21, 25° C.): 78.1 ± 0.3%
- Purity(%) at day 21 (40° C.) (pH 2.0, day 21, 40° C.): 20.6 ± 0.3%
- Purity (%) at day 21 (60° C.) (pH 2.0, day 21, 60° C.): 0%
- Purity(%) at day 0 (pH 3.0, day 0): 97.8 ± 0.2%
- Purity(%) at day 21 (5° C.) (pH 3.0, day 21, 5° C.): 95.3 ± 0.3%
- Purity(%) at day 21 (25° C.) (pH 3.0, day 21, 25° C.): 91.2 ± 0.2%
- Purity(%) at day 21 (40° C.) (pH 3.0, day 21, 40° C.): 41.7 ± 0.2%
- Purity (%) at day 21 (60° C.) (pH 3.0, day 21, 60° C.): 0%
- Purity(%) at day 0 (pH 3.7, day 0): 97.9 ± 0.2%
- Purity(%) at day 21 (5° C.) (pH 3.7, day 21, 5° C.): 96.4 ± 0.2%
- Purity(%) at day 21 (25° C.) (pH 3.7, day 21, 25° C.): 95.6 ± 0.2%
- Purity(%) at day 21 (40° C.) (pH 3.7, day 21, 40° C.): 56.6 ± 0.2%
- Purity (%) at day 21 (60° C.) (pH 3.7, day 21, 60° C.): 11.5 ± 0.3%
- Purity(%) at day 0 (pH 4.0, day 0): 98.1 ± 0.1%
- Purity(%) at day 21 (5° C.) (pH 4.0, day 21, 5° C.): 96.8 ± 0.1%
- Purity(%) at day 21 (25° C.) (pH 4.0, day 21, 25° C.): 95.7 ± 0.2%
- Purity(%) at day 21 (40° C.) (pH 4.0, day 21, 40° C.): 58.3 ± 0.2%
- Purity (%) at day 21 (60° C.) (pH 4.0, day 21, 60° C.): 23.0 ± 0.3%
- Purity(%) at day 0 (pH 4.3, day 0): 98.1 ± 0.2%
- Purity(%) at day 21 (5° C.) (pH 4.3, day 21, 5° C.): 96.9 ± 0.1%
- Purity(%) at day 21 (25° C.) (pH 4.3, day 21, 25° C.): 95.4 ± 0.1%
- Purity(%) at day 21 (40° C.) (pH 4.3, day 21, 40° C.): 60.1 ± 0.1%
- Purity (%) at day 21 (60° C.) (pH 4.3, day 21, 60° C.): 25.8 ± 0.2%
- Purity(%) at day 0 (pH 4.6, day 0): 97.9 ± 0.1%
- Purity(%) at day 21 (5° C.) (pH 4.6, day 21, 5° C.): 96.3 ± 0.2%
- Purity(%) at day 21 (25° C.) (pH 4.6, day 21, 25° C.): 94.9 ± 0.2%
- Purity(%) at day 21 (40° C.) (pH 4.6, day 21, 40° C.): 55.3 ± 0.2%
- Purity (%) at day 21 (60° C.) (pH 4.6, day 21, 60° C.): 13.5 ± 0.3%
- Purity(%) at day 0 (pH 5.0, day 0): 97.8 ± 0.2%
- Purity(%) at day 21 (5° C.) (pH 5.0, day 21, 5° C.): 96.1 ± 0.2%
- Purity(%) at day 21 (25° C.) (pH 5.0, day 21, 25° C.): 92.1 ± 0.3%
- Purity(%) at day 21 (40° C.) (pH 5.0, day 21, 40° C.): 37.8 ± 0.3%
- Purity (%) at day 21 (60° C.) (pH 5.0, day 21, 60° C.): 1.7 ± 0.3%
- Purity(%) at day 0 (pH 6.0, day 0): 97.6 ± 0.3%
- Purity(%) at day 21 (5° C.) (pH 6.0, day 21, 5° C.): 94.4 ± 0.2%
- Purity(%) at day 21 (25° C.) (pH 6.0, day 21, 25° C.): 79.5 ± 0.3%
- Purity(%) at day 21 (40° C.) (pH 6.0, day 21, 40° C.): 19.5 ± 0.2%
- Purity (%) at day 21 (60° C.) (pH 6.0, day 21, 60° C.): 0%
- Purity(%) at day 0 (pH 7.0, day 0): 97.4 ± 0.3%
- Purity(%) at day 21 (5° C.) (pH 7.0, day 21, 5° C.): 90.0 ± 0.3%
- Purity(%) at day 21 (25° C.) (pH 7.0, day 21, 25° C.): 59.7 ± 0.3%
- Purity(%) at day 21 (40° C.) (pH 7.0, day 21, 40° C.): 5.7 ± 0.3%
- Purity (%) at day 21 (60° C.) (pH 7.0, day 21, 60° C.): 0%
- Purity(%) at day 0 (pH 8.0, day 0): 97.1 ± 0.3%
- Purity(%) at day 21 (5° C.) (pH 8.0, day 21, 5° C.): 78.1 ± 0.3%
- Purity(%) at day 21 (25° C.) (pH 8.0, day 21, 25° C.): 43.6 ± 0.4%
- Purity(%) at day 21 (40° C.) (pH 8.0, day 21, 40° C.): 0%
- Purity (%) at day 21 (60° C.) (pH 8.0, day 21, 60° C.): 0%

- Purity(%) at day 0 (pH 1.0, day 0): 97.5 ± 0.3%
- Purity(%) at day 21 (5° C.) (pH 1.0, day 21, 5° C.): 89.9 ± 0.3%
- Purity(%) at day 21 (25° C.) (pH 1.0, day 21, 25° C.): 63.5 ± 0.3%
- Purity(%) at day 21 (40° C.) (pH 1.0, day 21, 40° C.): 9.1 ± 0.3%
- Purity (%) at day 21 (60° C.) (pH 1.0, day 21, 60° C.): 0%
- Purity(%) at day 0 (pH 2.0, day 0): 97.7 ± 0.2%
- Purity(%) at day 21 (5° C.) (pH 2.0, day 21, 5° C.): 93.0 ± 0.2%
- Purity(%) at day 21 (25° C.) (pH 2.0, day 21, 25° C.): 77.8 ± 0.3%
- Purity(%) at day 21 (40° C.) (pH 2.0, day 21, 40° C.): 19.6 ± 0.3%
- Purity (%) at day 21 (60° C.) (pH 2.0, day 21, 60° C.): 0%
- Purity(%) at day 0 (pH 3.0, day 0): 97.8 ± 0.2%
- Purity(%) at day 21 (5° C.) (pH 3.0, day 21, 5° C.): 96.8 ± 0.2%
- Purity(%) at day 21 (25° C.) (pH 3.0, day 21, 25° C.): 91.3 ± 0.2%
- Purity(%) at day 21 (40° C.) (pH 3.0, day 21, 40° C.): 40.4 ± 0.2%
- Purity (%) at day 21 (60° C.) (pH 3.0, day 21, 60° C.): 0%
- Purity(%) at day 0 (pH 3.7, day 0): 97.9 ± 0.1%
- Purity(%) at day 21 (5° C.) (pH 3.7, day 21, 5° C.): 97.5 ± 0.1%
- Purity(%) at day 21 (25° C.) (pH 3.7, day 21, 25° C.): 95.6 ± 0.2%
- Purity(%) at day 21 (40° C.) (pH 3.7, day 21, 40° C.): 55.6 ± 0.2%
- Purity (%) at day 21 (60° C.) (pH 3.7, day 21, 60° C.): 8.5 ± 0.2%
- Purity(%) at day 0 (pH 4.0, day 0): 98.1 ± 0.1%
- Purity(%) at day 21 (5° C.) (pH 4.0, day 21, 5° C.): 97.6 ± 0.1%
- Purity(%) at day 21 (25° C.) (pH 4.0, day 21, 25° C.): 95.7 ± 0.1%
- Purity(%) at day 21 (40° C.) (pH 4.0, day 21, 40° C.): 57.2 ± 0.2%
- Purity (%) at day 21 (60° C.) (pH 4.0, day 21, 60° C.): 23.2 ± 0.2%
- Purity(%) at day 0 (pH 4.3, day 0): 98.1 ± 0.1%
- Purity(%) at day 21 (5° C.) (pH 4.3, day 21, 5° C.): 97.7 ± 0.2%
- Purity(%) at day 21 (25° C.) (pH 4.3, day 21, 25° C.): 95.5 ± 0.1%
- Purity(%) at day 21 (40° C.) (pH 4.3, day 21, 40° C.): 58.8 ± 0.3%
- Purity (%) at day 21 (60° C.) (pH 4.3, day 21, 60° C.): 25.8 ± 0.2%
- Purity(%) at day 0 (pH 4.6, day 0): 97.9 ± 0.1%
- Purity(%) at day 21 (5° C.) (pH 4.6, day 21, 5° C.): 97.6 ± 0.1%
- Purity(%) at day 21 (25° C.) (pH 4.6, day 21, 25° C.): 95.1 ± 0.1%
- Purity(%) at day 21 (40° C.) (pH 4.6, day 21, 40° C.): 54.7 ± 0.2%
- Purity (%) at day 21 (60° C.) (pH 4.6, day 21, 60° C.): 16.5 ± 0.2%
- Purity(%) at day 0 (pH 5.0, day 0): 97.8 ± 0.2%
- Purity(%) at day 21 (5° C.) (pH 5.0, day 21, 5° C.): 95.9 ± 0.2%
- Purity(%) at day 21 (25° C.) (pH 5.0, day 21, 25° C.): 91.8 ± 0.2%
- Purity(%) at day 21 (40° C.) (pH 5.0, day 21, 40° C.): 36.1 ± 0.2%
- Purity (%) at day 21 (60° C.) (pH 5.0, day 21, 60° C.): 4.2 ± 0.2%
- Purity(%) at day 0 (pH 6.0, day 0): 97.6 ± 0.3%
- Purity(%) at day 21 (5° C.) (pH 6.0, day 21, 5° C.): 93.7 ± 0.2%
- Purity(%) at day 21 (25° C.) (pH 6.0, day 21, 25° C.): 78.9 ± 0.2%
- Purity(%) at day 21 (40° C.) (pH 6.0, day 21, 40° C.): 18.5 ± 0.2%
- Purity (%) at day 21 (60° C.) (pH 6.0, day 21, 60° C.): 0%
- Purity(%) at day 0 (pH 7.0, day 0): 97.5 ± 0.3%
- Purity(%) at day 21 (5° C.) (pH 7.0, day 21, 5° C.): 89.3 ± 0.2%
- Purity(%) at day 21 (25° C.) (pH 7.0, day 21, 25° C.): 59.7 ± 0.3%
- Purity(%) at day 21 (40° C.) (pH 7.0, day 21, 40° C.): 7.1 ± 0.3%
- Purity (%) at day 21 (60° C.) (pH 7.0, day 21, 60° C.): 0%
- Purity(%) at day 0 (pH 8.0, day 0): 97.4 ± 0.4%
- Purity(%) at day 21 (5° C.) (pH 8.0, day 21, 5° C.): 77.5 ± 0.3%
- Purity(%) at day 21 (25° C.) (pH 8.0, day 21, 25° C.): 39.8 ± 0.3%
- Purity(%) at day 21 (40° C.) (pH 8.0, day 21, 40° C.): 0%
- Purity (%) at day 21 (60° C.) (pH 8.0, day 21, 60° C.): 0%
Compound: CCN(CC)CCOC(=O)COc1nn(Cc2ccccc2)c2ccccc12.Cl
